# Assay results published in patent publication US3943123A, “Novel beta-lactams and novel process” (Koninklijke Nederlandsche Gist-En Spiritusfabriek N.V., priority 1974, dated 1976).
# Tests used:
# [1] = solubility in various organic solvents; type: physicochemical; settings: cis isomer, in words
# test organisms = test: anti-bacterial activity as determined by standard tests; type: cell-based; settings: in words
# From the text: Many of the β-lactams described here have anti-bacterial activity as determined by standards tests. […] The novel β-lactams of the invention are also useful intermediates for the preparation of complex substituted amino acids which can then be polymerized to form polymers. The amino acids are formed by 1,2-cleavage of the β-lactams with an alkali metal hydroxide or alkoxide such as sodium methoxide in a lower alkanol such as methanol to form the corresponding alkali metal salt of the resulting 3-aminopropionic acid which can be acidified to form the corresponding free amino acid.
# (§1) A stock solution of the test compounds at a concentration of […] in 0.05 molar phosphate buffer solution at a pH of 6.5 was prepared and two-fold dilutions were made with sterile buffer. 1 cc quantities of each dilution were then incorporated into 19 cc of brain heart infusion agar in sterile petri dishes. The hardened surface was then inoculated with the test organisms and it was then incubated for 18 hours at 37°C. The minimum inhibitory concentration (MIC) which is the least amount of compound completely inhibiting the test organism is determined in mg/cc.
# [2] = test system: Bacillus Subtilis ATCC 6633; test: MIC by two-fold agar dilution (brain heart infusion agar), Bacillus subtilis; type: cell-based; settings: ATCC6633, 18 hours at 37°C, pH 6.5 buffer, read-out: minimum inhibitory concentration (MIC)
# Procedure: as §1
# [3] = test system: Staphylococcus Aureus 2160'; test: MIC by two-fold agar dilution (brain heart infusion agar), Staphylococcus aureus 2160'; type: cell-based; settings: strain 2160', 18 hours at 37°C, pH 6.5 buffer, read-out: minimum inhibitory concentration (MIC)
# Procedure: as §1
# [4] = test system: Staphylococcus Aureus A 355; test: MIC by two-fold agar dilution (brain heart infusion agar), Staphylococcus aureus A 355; type: cell-based; settings: strain A 355, 18 hours at 37°C, pH 6.5 buffer, read-out: minimum inhibitory concentration (MIC)
# Procedure: as §1
# [5] = test system: Staphylococcus Aureus A 321; test: MIC by two-fold agar dilution (brain heart infusion agar), Staphylococcus aureus A 321; type: cell-based; settings: strain A 321, 18 hours at 37°C, pH 6.5 buffer, read-out: minimum inhibitory concentration (MIC)
# Procedure: as §1
Structure (SMILES),solubility in various organic solvents [1],antibacterial activity (test organisms),MIC [2] [mg/mL],MIC [3] [mg/mL],MIC [4] [mg/mL],MIC [5] [mg/mL]
O=C(O)c1ccc(N2C(=O)[C@@H](Oc3ccccc3)[C@H]2c2ccccc2O)cc1 (relative stereo) [cis-1-(p-carboxyphenyl)-3-phenoxy-4-(o-hydroxyphenyl)azetidin-2-one],low solubility in various organic solvents,,,,,
COc1ccc(C2C(Oc3ccccc3)C(=O)N2c2ccc(C(=O)O)cc2)cc1 (stereo not drawn) [1-(p-carboxyphenyl)-3-phenoxy-4-(p-methoxyphenyl)-azetidin-2-one],,outstanding for their antibacterial activity,,,,
O=C(O)c1ccc(N2C(=O)C(Oc3ccccc3)C2c2ccco2)cc1 (stereo not drawn) [1-p-carboxyphenyl-3-phenoxy-4-α-furyl-azetidin-2-one],,outstanding for their antibacterial activity,50,,,
COc1ccc(N2C(=O)C(Oc3ccccc3)C2c2ccc(C(=O)O)cc2)cc1 (stereo not drawn) [1-(p-methoxyphenyl)-3-phenoxy-4-(p-carboxyphenyl)-azetidin-2-one],,outstanding for their antibacterial activity,100,100,100,100
